# Measurements from PubChem BioAssay AID1919008 (Molecular Pharmacology Branch, DTP, NCI, 2023).
# Test system: DMS-114 complex spheroids with HUVEC/MSC, growth % test/control
# Assay: Anticancer human tumor DMS-114 cell line growth inhibition [AhR];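 further: spheroids exposed to agents for 7 days before readout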;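 on viability, T/C: 100% = DMSO vehicle control wells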
# Settings: for IC50: curve of first compound; for viability, T/C: stronger effect = lower value
# Outline: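 Agents were dosed in half-log steps down from roughly clinical Cmax, or from 10 microM where Cmax was unknown, alone and with AhR antagonists. Read-out: percent test/control growth of tumor spheroids containing HUVEC and MSC stromal cells.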
# [1] = second compound 0.1 µM, first compound 0.00949 µM
# [2] = second compound 0.1 µM, first compound 0.03 µM
# [3] = second compound 0.1 µM, first compound 0.0949 µM
# [4] = second compound 0.1 µM, first compound 0.3 µM
# [5] = second compound 0.316 µM, first compound 0.00949 µM
# [6] = second compound 0.316 µM, first compound 0.03 µM
# [7] = second compound 0.316 µM, first compound 0.0949 µM
# [8] = second compound 0.316 µM, first compound 0.3 µM
# [9] = second compound 1 µM, first compound 0.00949 µM
# [10] = second compound 1 µM, first compound 0.03 µM
# [11] = second compound 1 µM, first compound 0.0949 µM
# [12] = second compound 1 µM, first compound 0.3 µM
# [13] = second compound 3.16 µM, first compound 0.00949 µM
# [14] = second compound 3.16 µM, first compound 0.03 µM
# [15] = second compound 3.16 µM, first compound 0.0949 µM
# [16] = second compound 3.16 µM, first compound 0.3 µM
# [17] = second compound 10 µM, first compound 0.00949 µM
# [18] = second compound 10 µM, first compound 0.03 µM
# [19] = second compound 10 µM, first compound 0.0949 µM
# [20] = second compound 10 µM, first compound 0.3 µM
compound,measurement,setting,value
CC1(C)CCC(CN2CCN(c3ccc(C(=O)NS(=O)(=O)c4ccc(NCC5CCOCC5)c([N+](=O)[O-])c4)c(Oc4cnc5[nH]ccc5c4)c3)CC2)=C(c2ccc(Cl)cc2)C1 + Cc1cncc(-c2nc(NCCc3c[nH]c4ccccc34)c3ncn(C(C)C)c3n2)c1,IC50,second compound 0.1 µM,> 10000 nM
same,IC50,second compound 0.316 µM,> 10000 nM
same,IC50,second compound 1 µM,> 10000 nM
same,IC50,second compound 3.16 µM,> 10000 nM
same,IC50,second compound 10 µM,6390 nM
same,"viability, T/C","second compound 0.1 µM, first compound 0.0316 µM",91.9%
same,"viability, T/C","second compound 0.1 µM, first compound 0.1 µM",92.7%
same,"viability, T/C","second compound 0.1 µM, first compound 0.316 µM",101%
same,"viability, T/C","second compound 0.1 µM, first compound 1 µM",106%
same,"viability, T/C","second compound 0.1 µM, first compound 3.16 µM",94.9%
same,"viability, T/C","second compound 0.1 µM, first compound 10 µM",110%
same,"viability, T/C","second compound 0.316 µM, first compound 0.0316 µM",91.5%
same,"viability, T/C","second compound 0.316 µM, first compound 0.1 µM",95.7%
same,"viability, T/C","second compound 0.316 µM, first compound 0.316 µM",95.5%
same,"viability, T/C","second compound 0.316 µM, first compound 1 µM",107%
same,"viability, T/C","second compound 0.316 µM, first compound 3.16 µM",102%
same,"viability, T/C","second compound 0.316 µM, first compound 10 µM",98.9%
same,"viability, T/C","second compound 1 µM, first compound 0.0316 µM",102%
same,"viability, T/C","second compound 1 µM, first compound 0.1 µM",102%
same,"viability, T/C","second compound 1 µM, first compound 0.316 µM",108%
same,"viability, T/C","second compound 1 µM, first compound 1 µM",97.6%
same,"viability, T/C","second compound 1 µM, first compound 3.16 µM",110%
same,"viability, T/C","second compound 1 µM, first compound 10 µM",101%
same,"viability, T/C","second compound 3.16 µM, first compound 0.0316 µM",96.8%
same,"viability, T/C","second compound 3.16 µM, first compound 0.1 µM",86.8%
same,"viability, T/C","second compound 3.16 µM, first compound 0.316 µM",93.8%
same,"viability, T/C","second compound 3.16 µM, first compound 1 µM",103%
same,"viability, T/C","second compound 3.16 µM, first compound 3.16 µM",96.3%
same,"viability, T/C","second compound 3.16 µM, first compound 10 µM",84.7%
same,"viability, T/C","second compound 10 µM, first compound 0.0316 µM",50.9%
same,"viability, T/C","second compound 10 µM, first compound 0.1 µM",60.2%
same,"viability, T/C","second compound 10 µM, first compound 0.316 µM",58.3%
same,"viability, T/C","second compound 10 µM, first compound 1 µM",47.8%
same,"viability, T/C","second compound 10 µM, first compound 3.16 µM",45%
same,"viability, T/C","second compound 10 µM, first compound 10 µM",53.7%
CCN(c1cc(-c2ccc(CN3CCOCC3)cc2)cc(C(=O)NCc2c(C)cc(C)[nH]c2=O)c1C)C1CCOCC1 + Cc1cncc(-c2nc(NCCc3c[nH]c4ccccc34)c3ncn(C(C)C)c3n2)c1,IC50,second compound 0.1 µM,> 3000 nM
same,IC50,second compound 0.316 µM,> 3000 nM
same,IC50,second compound 1 µM,> 3000 nM
same,IC50,second compound 3.16 µM,> 3000 nM
same,IC50,second compound 10 µM,361 nM
same,"viability, T/C",[1],92.9%
same,"viability, T/C",[2],97.4%
same,"viability, T/C",[3],92.9%
same,"viability, T/C",[4],92.6%
same,"viability, T/C","second compound 0.1 µM, first compound 0.949 µM",82.7%
same,"viability, T/C","second compound 0.1 µM, first compound 3 µM",70.8%
same,"viability, T/C",[5],94.9%
same,"viability, T/C",[6],89.3%
same,"viability, T/C",[7],109%
same,"viability, T/C",[8],90.5%
same,"viability, T/C","second compound 0.316 µM, first compound 0.949 µM",78.9%
same,"viability, T/C","second compound 0.316 µM, first compound 3 µM",59%
same,"viability, T/C",[9],99.1%
same,"viability, T/C",[10],101%
same,"viability, T/C",[11],95.9%
same,"viability, T/C",[12],91.2%
same,"viability, T/C","second compound 1 µM, first compound 0.949 µM",76.6%
same,"viability, T/C","second compound 1 µM, first compound 3 µM",68.8%
same,"viability, T/C",[13],99.3%
same,"viability, T/C",[14],97.8%
same,"viability, T/C",[15],90%
same,"viability, T/C",[16],92%
same,"viability, T/C","second compound 3.16 µM, first compound 0.949 µM",74.8%
same,"viability, T/C","second compound 3.16 µM, first compound 3 µM",63.5%
same,"viability, T/C",[17],58.2%
same,"viability, T/C",[18],55.2%
same,"viability, T/C",[19],54.3%
same,"viability, T/C",[20],50.9%
same,"viability, T/C","second compound 10 µM, first compound 0.949 µM",45.7%
same,"viability, T/C","second compound 10 µM, first compound 3 µM",46.4%
Nc1ncn(C2CC(O)C(CO)S2)c(=O)n1 (stereo not given) + Cc1cncc(-c2nc(NCCc3c[nH]c4ccccc34)c3ncn(C(C)C)c3n2)c1,IC50,second compound 0.1 µM,222 nM
same,IC50,second compound 0.316 µM,219 nM
same,IC50,second compound 1 µM,294 nM
same,IC50,second compound 3.16 µM,293 nM
same,IC50,second compound 10 µM,43.8 nM
same,"viability, T/C","second compound 0.1 µM, first compound 0.000949 µM",101%
same,"viability, T/C","second compound 0.1 µM, first compound 0.003 µM",110%
same,"viability, T/C",[1],80.4%
same,"viability, T/C",[2],93.2%
same,"viability, T/C",[3],57.6%
same,"viability, T/C",[4],46.8%
same,"viability, T/C","second compound 0.316 µM, first compound 0.000949 µM",86.7%
same,"viability, T/C","second compound 0.316 µM, first compound 0.003 µM",97.1%
same,"viability, T/C",[5],92.2%
same,"viability, T/C",[6],84%
same,"viability, T/C",[7],59.2%
same,"viability, T/C",[8],46.5%
same,"viability, T/C","second compound 1 µM, first compound 0.000949 µM",87.7%
same,"viability, T/C","second compound 1 µM, first compound 0.003 µM",95.7%
same,"viability, T/C",[9],99.5%
same,"viability, T/C",[10],80.1%
same,"viability, T/C",[11],73%
same,"viability, T/C",[12],49.3%
same,"viability, T/C","second compound 3.16 µM, first compound 0.000949 µM",102%
same,"viability, T/C","second compound 3.16 µM, first compound 0.003 µM",98.6%
same,"viability, T/C",[13],93.2%
same,"viability, T/C",[14],94.5%
same,"viability, T/C",[15],58.7%
same,"viability, T/C",[16],49.5%
same,"viability, T/C","second compound 10 µM, first compound 0.000949 µM",57%
same,"viability, T/C","second compound 10 µM, first compound 0.003 µM",51.4%
same,"viability, T/C",[17],55.5%
same,"viability, T/C",[18],54.7%
same,"viability, T/C",[19],43.7%
same,"viability, T/C",[20],37.7%
